Source: patent US20210401931A1, “METHODS AND MATERIALS FOR TREATING CANCER” (Mayo Foundation for Medical Education and Research, priority 2018, published 2021)
Ends that are not written are not given here.

Key:
PD-L1 = PD-L1 expression (western blot, RT-qPCR) in PC-3 cells expressing RL peptide; type: cell-based, human; conditions: for gamma irradiation-induced upregulation of PD-L1: 12 Gy
Protocol: FIGS. 5A-K. The importance of S249/T252 phosphorylation of RB in regulation of PD-L1 expression. (A, B) PC-3 cells were infected with lentivirus expressing control shRNA, RB1-specific, p65-specific, or both shRNA. 48 hours post puromycin selection, cells were harvested for western blotting (A) and RT-qPCR analysis (B). All data were shown as mean values±SD (n=3). * P<0.05, ** P<0.01, *** P<0.001. (C, D) DU145 cells were transfected with indicated plasmids. 24 hours after transfection, cells were harvested for western blotting analysis (C) and RT-qPCR analysis (D). All data were shown as mean values±SD (n=3). * P<0.05, ** P<0.01, *** P<0.001. (E, F) DU145 cells were transfected with indicated plasmids. 24 hours after transfection, cells were harvested for western blotting analysis (E) and RT-qPCR analysis (F). All data were shown as mean values±SD (n=3). * P<0.05, ** P<0.01, *** P<0.001. (G, H) PC-3 cells were infected with lentivirus expressing control shRNA or p65-specific shRNAs. After 24 hours, cells were further transfected with empty vector or SFB-RL-S249D/T252D for another 24 hours followed by western blot analysis (G) and RT-qPCR analysis (H). All data were shown as mean values±SD (n=3). * P<0.05, ** P<0.01, *** P<0.001. (I) Representative images of IHC of anti-PD-L1 and anti-pRB-S249/T252 antibodies of TMA (n=145 TMA elements) tissue sections. Scale bars were shown as indicated. (J) Heatmap showing IHC score of PD-L1 and pRB-S249/T252 in TMA. (K) Correlation analysis of IHC score for expression of PD-L1 and pRB-S249/T252 polypeptides in prostate cancer patient specimens (n=145 TMA elements). Pearson's product-moment correlation co-efficiency and the P values were also shown.
FIGS. 6A-J. The small S249/T252 phosphorylation-mimicking polypeptide of RB blocks irradiation-induced PD-L1 expression and inhibits cancer immune evasion. (A, B) PC-3 cells were infected with lentivirus expressing control shRNA or p65-specific or shRNA. 24 hours after puromycin selection, cells were treated with or without gamma irradiation (IR) (12 Gy). 48 hours after IR treatment, cells were harvested for western blotting analysis (A) and RT-qPCR analysis (B). All data were shown as mean values±SD (n=3). * P<0.05, ** P<0.01, *** P<0.001. (C, D) PC-3 cells were treated with without gamma irradiation (12 Gy). Cells were harvested at the indicated time point for western blotting analysis (C) and RT-qPCR analysis (D). All data were shown as mean values±SD (n=3). * P<0.05, ** P<0.01, *** P<0.001. (E) Western blot analysis of WCL and co-IP samples in PC-3 cells 48 hours after treated with or without gamma irradiation (12 Gy). (F) ChIP-qPCR analysis of p65 binds at the PD-L1 promotor in PC-3 cells 48 hours after treated with or without gamma irradiation (12 Gy). All data were shown as mean values±SD (n=3). * P<0.05, ** P<0.01, *** P<0.001. (G, H) PC-3 cells were treated with or without gamma irradiation (12 Gy). 24 hours post treatment, cells were transfected with indicated constructs. 24 hours after transfection, cells were harvested for western blotting analysis (G) and RT-qPCR analysis (H). All data were shown as mean values±SD (n=3). * P<0.05, ** P<0.01, *** P<0.001. (I) PTEN-CaP8 mouse prostate cancer cells were transduced with lentivirus for control vector or the small RB S249/T252-phosphorylation-mimicking polypeptide RL-S249D/T252D. 72 hours after purimycin selection, 5×10^6 control or RL-S249D/T252D-expressing cells were injected subcutaneously into C57BL/6 mice. Mice (n=8/group) were treated with gamma irradiation (12 Gy) or mock treated, and with anti-PD-L1 (200 μg) or non-specific IgG for 45 days. (J) The absolute number of CD45^+CD8^+ T cells, CD45^+CD4^+ T cells, and CD11b^+Gr1^+ myeloid cells of implanted PTEN-CaP8 in tumors treated with indicated agents was analyzed by FACS. All data were shown as mean values±SD (n=8). ns, not significant, *** P<0.001.
Total RNA was isolated using TRIzol reagent (Thermo Fisher Scientific). […]

PTEN-CaP8 tumors = assay: PTEN-CaP8 mice tumor model, tumor growth; type: in vivo, mouse; conditions: C57BL/6 mice, s.c. PTEN-CaP8 tumors
Protocol: FIGS. 6A-J. The small S249/T252 phosphorylation-mimicking polypeptide of RB blocks irradiation-induced PD-L1 expression and inhibits cancer immune evasion. (A, B) PC-3 cells were infected with lentivirus expressing control shRNA or p65-specific or shRNA. 24 hours after puromycin selection, cells were treated with or without gamma irradiation (IR) (12 Gy). 48 hours after IR treatment, cells were harvested for western blotting analysis (A) and RT-qPCR analysis (B). All data were shown as mean values±SD (n=3). * P<0.05, ** P<0.01, *** P<0.001. (C, D) PC-3 cells were treated with without gamma irradiation (12 Gy). Cells were harvested at the indicated time point for western blotting analysis (C) and RT-qPCR analysis (D). All data were shown as mean values±SD (n=3). * P<0.05, ** P<0.01, *** P<0.001. (E) Western blot analysis of WCL and co-IP samples in PC-3 cells 48 hours after treated with or without gamma irradiation (12 Gy). […] (J) The absolute number of CD45^+CD8^+ T cells, CD45^+CD4^+ T cells, and CD11b^+Gr1^+ myeloid cells of implanted PTEN-CaP8 in tumors treated with indicated agents was analyzed by FACS. […]
6-week-old C57BL/6 mice (Jackson Lab) were used for animal experiments. […] The volume of xenografts was measured every other day and calculated using the formula L×W2×0.5. […]

## RL-S249D/T252D: S249/T252 phospho-mimicking R-Linker (RL) peptide: fragment of RB-N containing 21 amino acids surrounding S249/T252, expressed SFB-tagged or by lentivirus (NGDPRDPRRGQNRSARIAKQL; also: expressed SFB-tagged (tag left off))
PD-L1; PC-3 cells transfected with SFB-tagged peptide, 24 hours
  PD-L1 expression in p65-proficient cells: largely inhibited
PD-L1; PC-3 cells transfected with peptide construct
  PD-L1 expression (FIG. 6G): almost completely blocked
PD-L1; PC-3 cells with p65 shRNA, transfected with SFB-tagged peptide, listed as RL-S249/T252D peptide
  PD-L1 expression in p65-depleted cells: little or no effect
PD-L1; PC-3 cells, ectopic expression of peptide
  gamma irradiation-induced upregulation of PD-L1: largely, but not completely blocked
PD-L1; PC-3 cells, ectopic expression of peptide, listed as RL-S249/T252D
  gamma irradiation-induced upregulation of PD-L1: largely diminished
PD-L1; PC-3 cells, ectopic expression of peptide, no irradiation
  PD-L1 basal level: decreased
PTEN-CaP8 tumors; 12 Gy
  tumor growth, agent combined with gamma irradiation: tumors regressed
PTEN-CaP8 tumors; anti-PD-L1 200 μg or lentiviral peptide expression
  tumor growth, agent without irradiation: markedly inhibited
